{
  "source": "patent US12239134B2",
  "about": "“Plant antimicrobial compositions including an emulsifier and/or ozone and methods of use” (Arizona Board of Regents on Behalf of The University of …, priority 2018, dated 2025)",
  "key": {"[1]": {"tested_on": "mesophilic and psychrotrophic bacteria", "conditions": "3 minutes (Kim et al. 1999); cited from earlier work"}, "[2]": {"tested_on": "Salmonella enterica serovar Newport SN78", "test": "Ozone-plant antimicrobial wash of inoculated iceberg lettuce leaves", "format": "cell-based", "conditions": "ozonated wash", "method": "Bacterial culture: Salmonella enterica serovar Newport SN78 (bovine isolate; provided by Dr. Marilyn Erickson, University of Georgia, Griffin, GA) was used for this experiment. Dual antibiotic resistance (100 μg/ml ampicillin and 25 μg/ml streptomycin, Amresco, Solon, OH) was developed in the strain through incremental antibiotic exposure. […] The frozen stock culture was initially revived through two transfers into brain heart infusion broth (BHIB) (Becton, Dickinson and Co (BD), Sparks, MD) followed by isolation on xylose lysine desoxycholate (XLD) agar (Becton, Dickinson and Co (BD), Sparks, MD) containing 100 μg/ml ampicillin and 25 μg/ml streptomycin.\nInoculum Preparation: For each experiment, a 20 hour overnight culture was prepared by inoculating 100 μl of the culture in 30 ml of tryptic soy broth (TSB) containing 100 μg/ml ampicillin and 25 μg/ml streptomycin and incubating at 37° C. in a desktop orbital shaker at 200 rpm (MaxQ 4450, Thermo Scientific, Dubuque, IA, USA). The cells in the medium were pelleted by centrifugation at 4000 g (Eppendorf Model 5810, Hamburg, Germany) and the supernatant was discarded. […]. The four outer leaves of the iceberg lettuce were removed and discarded. Whole leaf samples (10 g±0.5 g each) were used. The iceberg lettuce samples were inoculated by immersing 10 g portions into the PBS-S. Newport suspension for 2 minutes. After immersion, the excess culture suspension was allowed to drain from the leaf and the leaves were allowed to dry in a biohood for 1 hour to aid in the attachment of S. Newport to the leaf surface.\nAntimicrobial wash solution preparation: The test plant-based antimicrobials used in this study consisted of oregano oil made from pure Origanum vulgare (Lhasa Karnak Company, Berkeley, California), its active component carvacrol (98% pure, molecular weight 150.2, CAS no. 499-75-2, Sigma, St. Louis, MO), olive extract (CreAgri, Hayward, CA), and quillaja saponin made from Quillaja saponaria (Sigma Aldrich, St. Louis, MO). […]"}, "[3]": {"tested_on": "total plate counts", "conditions": "Wang et al. 2004; cited from earlier work"}},
  "data": [
    {"smiles": "O=[O+][O-]", "note": "[ozonized water, ozone]", "values": [
      {"measurement": "decreased counts of mesophilic bacteria on shredded lettuce", "setting": "[1]", "result": 1.4, "unit": "log CFU/g"},
      {"measurement": "decreased counts of psychrotrophic bacteria on shredded lettuce", "setting": "[1]", "result": 1.8, "unit": "log CFU/g"},
      {"measurement": "reduction in S. Newport population on iceberg lettuce leaves", "setting": "[2]; 60 min", "result": "1.76±0.27", "unit": "log CFU/g"},
      {"measurement": "reduction in S. Newport population on iceberg lettuce leaves", "setting": "[2]; 90 min", "result": "1.67±0.28", "unit": "log CFU/g"},
      {"measurement": "reduction in S. Newport population on iceberg lettuce leaves", "setting": "[2]; 120 min", "result": "2.09±0.54", "unit": "log CFU/g"},
      {"measurement": "total plate counts on cilantro leaves after treatment", "setting": "[3]", "result": "did not decrease total plate counts"}
    ]}
  ]
}
